The experiment deals with C57BL/KsJ-db/db mice. As to the kind of experiment: blood sugar and triglycerides lowering in db/db mice, oral gavage daily for 6 days. Particulars: for inhibition in vivo at 100 mg/kg/day / inhibition in vivo at 30 mg/kg/day / inhibition in vivo at 10 mg/kg/day: Mus musculus, 144 h, 6 days treated; for inhibition in vivo at 100 mg/kg/day: dose 100 mg/kg/day oral gavage; for inhibition in vivo at 30 mg/kg/day: dose 30 mg/kg/day oral gavage; for inhibition in vivo at 10 mg/kg/day: dose 10 mg/kg/day oral gavage. Format: in vivo. From the text: Mutation in colonies of laboratory animals and different sensitivities to dietary regimens have made the development of animal models with non-insulin dependent diabetes associated with obesity and insulin resistance possible. Genetic models such as db/db and ob/ob (See Diabetes, (1982) 31(1): 1-6) in mice and fa/fa and zucker rats have been developed by the various laboratories for understanding the pathophysiology of disease and testing the efficacy of new antidiabetic compounds (Diabetes, (1983) 32: 830-838; Annu. Rep. Sankyo Res. Lab. (1994) 46: 1-57). The homozygous animals, C57 BL/KsJ-db/db mice developed by Jackson Laboratory, US, are obese, hyperglycemic, hyperinsulinemic and insulin resistant (J. Clin. Invest., (1990) 85: 962-967), whereas heterozygous are lean and normoglycemic. In db/db model, mouse progressively develops insulinopenia with age, a feature commonly observed in late stages of human type II diabetes when blood sugar levels are insufficiently controlled. The state of pancreas and its course vary according to the models. Since this model resembles that of type II diabetes mellitus, the compounds of the present invention were tested for blood sugar and triglycerides lowering activities.
Male C57BL/KsJ-db/db mice of 8 to 14 weeks age, having body weight range of 35 to 60 grams, procured from the Jackson Laboraotory, USA, were used in the experiment. The mice were provided with standard feed (National Institute of Nutrition, Hyderabad, India) and acidified water, ad libitum. The animals having more than 300 mg/dl blood sugar were used for testing. The number of animals in each group was 4.
The random blood sugar and triglyceride levels were measured by collecting blood (100 μl) through orbital sinus, using heparinised capillary in tubes containing EDTA which was centrifuged to obtain plasma. The plasma glucose and triglycerides levels were measured spectrometrically, by glucose oxidase and glycerol-3-PO4 oxidase/peroxidase enzyme (Dr. Reddy's Lab. Diagnostic Division Kits, Hyderabad, India) methods respectively. On 6th day the blood samples were collected one hour after administration of test compounds/vehicle for assessing the biological activity.
Test compounds were suspended on 0.25% carboxymethyl cellulose and administered to test group at a dose of 10 mg to 100 mg/kg through oral gavage daily for 6 days. The control group received vehicle (dose 10 ml/kg).
The blood sugar and triglycerides lowering activities of the test compound was calculated according to the formula: [formula]

Setting [1] is: read-out: Maximum reduction in blood glucose level (%).
Where [2] appears, read: read-out: Triglyceride lowering (%).

Here are results for 14 compounds from US6780992B2, “Heterocyclic compounds, process for their preparation and pharmaceutical compositions containing them and their use in the treatment of diabetes and related diseases” (Dr. Reddy's Laboratories Ltd., priority 1996, dated 2004).

Where a name gives a salt, the structure may show the parent alone. Read-outs that look alike come from different tables or passages of the source.

Turning to `CCc1c(C)nc(CC)n(CCOc2ccc(/C=C3\SC(=O)NC3=O)cc2)c1=O` [Example 6, 5-[4-[2-[2,Diethyl-4-methyl-6-oxo-1,6-dihydro-1-pyrimidinyl]ethoxy]phenylmethylene]thiazolidine-2,4-dione], the inhibition in vivo at 100 mg/kg/day came to 41% under setting [1] and 31% under setting [2]. Turning to `CCCc1nc(C)cc(=O)n1CCOc1ccc(CC2SC(=O)NC2=O)cc1` (stereo not drawn) [Example 17, 5-[4-[2-[4-methyl-2-Propyl-6-oxo-1,6-dihydro-1-pyrimidinyl]ethoxy]phenylmethyl]thiazolidine-2,4-dione], the inhibition in vivo at 30 mg/kg/day reads like this: under setting [1], 65%; under setting [2], 45%. In the case of `Cc1nc2ccccc2c(=O)n1CCOc1ccc(/C=C2\SC(=O)NC2=O)cc1` [Example 9, 5-[4-[2-[2-Methyl-4-oxo-3,4-dihydro-3-quinazolinyl]ethoxy]phenylmethylene]thiazolidine-2,4-dione], the inhibition in vivo at 30 mg/kg/day runs as follows: under setting [1], 46%; under setting [2], 35%. Regarding `CCc1nc2ccccc2c(=O)n1CCOc1ccc(CC2SC(=O)NC2=O)cc1` (stereo not drawn) [Example 24, 5-[4-[2-[2-Ethyl-4-oxo-3,4-dihydro-3-quinazolinyl]ethoxy]phenylmethyl]thiazolidine-2,4-dione], the inhibition in vivo at 10 mg/kg/day under setting [1] worked out at 63% and the inhibition in vivo at 10 mg/kg/day under setting [2] was 17%.

With `CCc1nc(C)cc(=O)n1CCOc1ccc(/C=C2\SC(=O)NC2=O)cc1` [Example 3, 5-[4-[2-[2-Ethyl-4-methyl-6-oxo-1,6-dihydro-1-pyrimidinyl]ethoxy]phenylmethylene]thiazolidine-2,4-dione], the inhibition in vivo at 100 mg/kg/day came to 67% under setting [1] and 12% under setting [2]. Regarding `CCn1c(COc2ccc(/C=C3\SC(=O)NC3=O)cc2)nc2ccccc2c1=O` [Example 13, 5-[4-[[3-Ethyl-4-oxo-3,4-dihydro-2-quinazolinyl]methoxy]phenylmethylene]thiazolidine-2,4-dione], the inhibition in vivo at 100 mg/kg/day is, setting by setting: under setting [1], 52%; under setting [2], 57%.

In the case of `Cc1c(C)c2c(c(C)c1O)CCC(C)(COc1ccc(CC3SC(=O)NC3=O)cc1)O2` (stereo not drawn) [Troglitazone, reference compound], the “reduction in random blood sugar level” value (100 mg/kg daily dose, on 6th day) was 28%. Consider `Cn1c(COc2ccc(CC3SC(=O)NC3=O)cc2)nc2ccccc2c1=O` (stereo not drawn) [Example 28, 5-[4-[[3-Methyl-4oxo-3,4-dihydro-2-quinazolinyl]methoxy]phenylmethyl]thiazolidine-2,4-dione sodium salt], for which the inhibition in vivo at 10 mg/kg/day is, setting by setting: under setting [1], 63%; under setting [2], 57%. With `Cn1c(COc2ccc(CC3SC(=O)NC3=O)cc2)nc2ccccc2c1=O` (stereo not drawn) [Example 22, 5-[4-[[3-Methyl-4-oxo-3,4-dihydro-2-quinazolinyl]methoxy]phenylmethyl]thiazolidine-2,4-dione], the inhibition in vivo at 30 mg/kg/day is, setting by setting: under setting [1], 55%; under setting [2], 41%.

`CCc1nc(C)cc(=O)n1CCOc1ccc(CC2SC(=O)NC2=O)cc1` (stereo not drawn) [Example 19, 5-[4-[2-[2-Ethyl-4-methyl-6-oxo-1,6-dihydro-1-pyrimidinyl]ethoxy]phenylmethyl]thiazolidine-2,4-dione]: the inhibition in vivo at 30 mg/kg/day is 73% under setting [1] and 70% under setting [2]. With `CCc1nc(-c2ccccc2)cc(=O)n1CCOc1ccc(/C=C2\SC(=O)NC2=O)cc1` [Example 7, 5-[4-[2-[2-Ethyl-4phenyl-6-oxo-1,6-dihydro-1-pyrimidinyl]ethoxy]phenylmethylene]thiazolidine-2,4-dione], the inhibition in vivo at 100 mg/kg/day is, setting by setting: under setting [1], 66%; under setting [2], 35%. `Cc1nc2ncccc2c(=O)n1CCOc1ccc(/C=C2\SC(=O)NC2=O)cc1` [Example 11, 5-[4-[2-[8-Aza-2-methyl-4-oxo-3,4-dihydro-3-quinazolinyl]ethoxy]phenylmethylene]thiazolidine-2,4-dione]: the inhibition in vivo at 30 mg/kg/day reads like this: under setting [1], 32%; under setting [2], 42%. For the compound `Cn1c(COc2ccc(/C=C3\SC(=O)NC3=O)cc2)nc2ccccc2c1=O` [Example 12, 5-[4-[[3-Methyl-4-oxo-3,4-dihydro-2-quinazolinyl]methoxy]phenylmethylene]thiazolidine-2,4-dione], the inhibition in vivo at 100 mg/kg/day under setting [1] turned out to be 71% and the inhibition in vivo at 100 mg/kg/day under setting [2] is 57%. Take `CCc1nc(-c2ccccc2)cc(=O)n1CCOc1ccc(CC2SC(=O)NC2=O)cc1` (stereo not drawn) [Example 21, 5-[4-[2-[2-Ethyl-4phenyl-6-oxo-1,6-dihydro-1-pyrimidinyl]ethoxy]phenylmethyl]thiazolidine-2,4-dione]: the inhibition in vivo at 30 mg/kg/day under setting [1] came out at 64% and the inhibition in vivo at 30 mg/kg/day under setting [2] turned out to be 76%.
